Calls of active or inactive are those of the source.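 The calls were made as follows: active = compounds giving half or more protection of infected cells from virus-caused growth loss, again on retest; inactive = the rest.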
Test system: CEM cells HIV-1 protection, formazan growth assay
Assay: NCI AIDS Antiviral Assay
Settings: for IC50: measured here: growth of uninfected CEM cells
In short: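 CEM (human) cells, HIV-1 infected vs uninfected, 5-point dosing, formazan growth read-out. Retest threshold 50% protection.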

| Structure (SMILES) | EC50 | IC50 | outcome |
| --- | --- | --- | --- |
| CSc1nc2c(c(=O)n1C)N=C(c1ccccc1)[C@H](C(CC(=O)c1ccccc1)c1ccccc1)C(c1ccccc1)N2 (some centres undefined) | > 200 µM | 47.9 µM | – |
| Cc1ccc2c(c1)nc1sc(C)cc(=O)n12 | > 200 µM | > 200 µM | – |
| CNS(=O)(=O)c1c(NC=O)ncn1C | > 1150 µM | > 1150 µM | – |
| Cc1cc(NS(=O)(=O)c2ccc(N=c3c4ccccc4n(-c4ccccc4)c4ccccc34)cc2)no1 | – | – | inactive |
| Cc1cc(O)c(/C=N/C(=S)Nc2ccccc2)c(=O)o1 | > 200 µM | > 200 µM | – |
| CC(C)(C)OC(=O)N1CC(C)(C)N2C(=O)C3(CCCO3)C12 (centres undefined) | 33.9 µM | 347 µM | – |
| O=C1CNC(=O)c2[nH]cnc2N1 | – | – | inactive |
| CC1=NN(C(=O)Cc2ccccc2)C(=O)/C1=C\c1ccc(O)cc1 | > 16.2 µM | > 16.2 µM | – |
| C=CCOC1OC(CS(=O)(=O)O)C(O)C(O)C1O (centres undefined) | – | – | inactive |
| O=S(=O)(Cc1ccccc1)CS(=O)(=O)Cc1ccccc1 | > 77.6 µM | > 77.6 µM | – |
| CCC(=O)N(C)[C@@H](C)C(=O)O[C@H]1CC(=O)N(C)c2cc(cc(OC)c2Cl)C/C(C)=C/C=C[C@@H](OC)[C@@]2(O)C[C@H](OC(=O)N2)[C@@H](C)[C@@H]2O[C@@]12C | – | – | inactive |
| CCC1(c2ccccc2)OCC(=O)NC1=O (centres undefined) | > 200 µM | > 200 µM | – |
| COC1(c2cccs2)OC(=O)c2c([N+](=O)[O-])cccc21 (centres undefined) | – | – | inactive |
| N=c1nc(N)nc2c3ccccc3nnn12 | > 24.5 µM | > 24.5 µM | – |
| Nn1c(N=Nc2c(O)[nH]c3c(Cl)cc(Cl)cc23)n[nH]c1=S | > 14.1 µM | > 14.1 µM | – |
| Cc1nc(N)nc(N)c1CCCCc1ccc(N)cc1 | – | – | inactive |
| O=C1C2=C(/C=C/c3ccccc3)OCCC2=NN1c1ccccc1 | > 42.7 µM | 7.59 µM | – |
| Cc1nc2ccccc2c(=O)n1NC(=S)Nc1cccc(Cl)c1 | > 20.9 µM | > 20.9 µM | – |

| Structure (SMILES) | EC50 | IC50 | outcome |
| --- | --- | --- | --- |
| CN1CCC(SC2Cc3cc(Cl)ccc3Sc3ccccc32)CC1 (centres undefined) | > 69.2 µM | 12 µM | – |
| Cc1nnc2nc(N)[nH]n2c1=O | > 200 µM | > 200 µM | – |
| COc1cc2c(cc1OC)Cc1cc(OC)c(OC)cc1Cc1cc(OC)c(OC)cc1C2 | – | – | inactive |
| COC(=O)[C@@]12CCCC(=O)[C@@H]1[C@H]1CCCC[C@H]12 | > 200 µM | 110 µM | – |
| C#CCn1c(=O)c2ccccc2n(CC#C)c1=O | > 200 µM | > 200 µM | – |
| CCN(CC)C(=S)[S-].CCN(CC)C(=S)[S-].O=C(O)CC([S-])C(=O)O.[Fe+3] (centres undefined) | > 100 µM | 38.9 µM | – |
| O=C(O)C[C@@H]1C(=O)OC2C3COC(=O)c4cc(O)c(O)c(O)c4-c4c(cc(O)c(O)c4O)C(=O)OC2C(OC(=O)c2cc(O)c(O)c4c2C1[C@H](O)C(=O)O4)C(OC(=O)c1cc(O)c(O)c(O)c1)O3 (some centres undefined) | 2.63 µM | 12.9 µM | – |
| COc1ccc(CCNC(=S)N/C=C\c2nc3ccccc3[nH]c2=O)cc1OC | – | – | inactive |
| Nc1cc(C(=O)Nc2ccc(C3=NCCN3)cc2)cc(C(=O)Nc2ccc(C3=NCCN3)cc2)c1 | 16.2 µM | 145 µM | – |
| Cc1ccc2c(c1)nc(-c1ccccn1)n2CCc1ccccn1 | > 347 µM | 83.2 µM | – |
| O=C1C2Nc3ccccc3SC2C(=O)N1c1ccccc1C(F)(F)F (centres undefined) | > 20 µM | 15.1 µM | – |
| C/C(O)=C(/C=N\C(=S)Nc1ccc(S(=O)(=O)Nc2nccs2)cc1)C(=O)Nc1ccccc1C | > 200 µM | 30.2 µM | – |
| O=C(N/N=C\c1ccc[nH]1)c1ccncc1 | > 200 µM | > 200 µM | – |
| N#C/C(=C\NC(=S)Nc1ccc(S(N)(=O)=O)cc1)C(=O)c1ccc2ccccc2c1 | > 200 µM | 155 µM | – |
| Clc1nnc(-c2ccccc2)s1 | > 200 µM | 87.1 µM | – |
| O=C(Nc1sccc1S(=O)(=O)c1ccc(Cl)cc1)C(F)(F)F | > 200 µM | 9.55 µM | – |
| COc1cc(O)c2c(=O)oc3cc(O)cc(C)c3c2c1 | > 34.7 µM | > 34.7 µM | – |
| COc1cc(N=Nc2ccc3c(c2)Cc2ccccc2-3)c(OC)cc1N | > 200 µM | 46.8 µM | – |

Reference: PubChem BioAssay AID179 (DTP/NCI, 2004)
